The target of this assay is T1, tyrosinase (Mus musculus, UniProt P11344).
T1 construct: the supernatant obtained constitutes the cell lysate used as tyrosinase source in the enzymatic assay; endogenous in cells; host or cells: B16F1 murine melanoma cells (alpha-MSH stimulated), detergent lysate supernatant
T1 sequence (P11344 19-533): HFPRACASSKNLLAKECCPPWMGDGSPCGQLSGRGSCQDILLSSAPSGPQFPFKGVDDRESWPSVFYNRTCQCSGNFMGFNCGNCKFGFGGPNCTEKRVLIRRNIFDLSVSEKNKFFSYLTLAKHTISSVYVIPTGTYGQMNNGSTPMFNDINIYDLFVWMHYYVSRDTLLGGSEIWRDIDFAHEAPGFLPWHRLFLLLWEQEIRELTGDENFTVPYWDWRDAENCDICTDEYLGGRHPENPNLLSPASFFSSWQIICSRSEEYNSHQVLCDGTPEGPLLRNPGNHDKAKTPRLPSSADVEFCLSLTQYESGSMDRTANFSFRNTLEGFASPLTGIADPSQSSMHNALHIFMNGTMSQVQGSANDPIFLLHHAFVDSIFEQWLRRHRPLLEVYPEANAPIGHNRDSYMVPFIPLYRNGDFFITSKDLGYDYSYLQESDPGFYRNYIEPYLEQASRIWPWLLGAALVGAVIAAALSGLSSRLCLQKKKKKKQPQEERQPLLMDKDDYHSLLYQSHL
Nature of the assay: Tyrosinase activity inhibition assay (B16F1 cell lysate, L-tyrosine substrate, MBTH, 520 nm). The assay is classed as biochemical. To be noted: lysate of B16F1 cells (murine melanoma line), L-DOPA cofactor, 37° C., reading at 520 nm after 6 hours, read-out: Tyrosine hydroxylase/Dopa oxidase IC50. On the procedure:
The activity of the inhibitors is measured starting from a lysate of B16F1 cells (murine melanoma line). In the presence of the L-tyrosine substrate, the tyrosinase present in these cells catalyses the hydroxylation of L-tyrosine to give L-DOPA and then the oxidation of the L-DOPA to give dopaquinone. In the presence of MBTH (3-methyl-2-benzothiazolinone hydrazone), the dopaquinone is trapped so as to form a pink complex which absorbs at 520 nm.
The B16F1 cells are cultured in DMEM medium+10% foetal calf serum+10^−9 M α-MSH for 4 days at 37° C. under 7% CO2. They are treated with trypsin, washed with PBS, counted and pelleted. The pellet is taken up at 10^7 cells/ml in lysis buffer (10 mM sodium phosphate, pH 6.8-1% Igepal) and the suspension is treated with ultrasound for 10 seconds. After centrifugation for 30 minutes at 4000 rpm, the supernatant obtained constitutes the cell lysate used as tyrosinase source in the enzymatic assay.
The assays are carried out in duplicate in 384-well plates in a total volume of 50 μl. Each well contains: […]
The plate is incubated at 37° C. and a spectrophotometric reading is carried out at 520 nm after incubating for 6 hours. To avoid any possible absorption of the products, the system uses corrected absorbance (absorbance at time 6 h—absorbance at time zero). […]

Regarding `Cc1ccc(-c2c[nH]c(=S)[nH]2)s1` [Compound 3, 4-(5-methylthiophen-2-yl)-1,3-dihydroimidazole-2-thione], the IC50 came to 300 nM.

In the case of `Cc1csc(-c2c[nH]c(=S)[nH]2)c1` [Compound 4, 4-(4-methylthiophen-2-yl)-1,3-dihydro-imidazole-2-thione], the IC50 was found to be 100 nM.

The values above are taken from US7989483B2, “4-heteroarylimidazole-2-thione tyrosinase inhibitors and pharmaceutical/cosmetic applications thereof” (Galderma Research & Development, priority 2007, dated 2011).
